The text below walks through data of US9274101B2 (BIOLOG, Inc., priority 2001, dated 2016).

SMILES strings stand for the structures.

Common to all, as to format: cell-based, human
Assay [1] concerns HepG2 cells. Kind of assay: HepG2 cells on flat bottom plastic wells, energy sources at a range of concentrations. The note with it: for activity at 30 µM / activity at 100 µM / activity at 330 µM / activity at 1000 µM / activity at 3300 µM / activity at 10000 µM / activity at 15000 µM / activity at 20000 µM: Homo sapiens, HepG2, 72 h, read-out: HepG2 Cells Responses After 72 hours in Culture and a 4 hour Color Development Period. The procedure:
In this Example, methods for testing adherent cells for their ability to use multiple carbon sources are described. The human hepatocellular carcinoma cell line known as HepG2 (Knowles et al., Science, 209:497-499 [1980]) was chosen for this experiment. However, this application is not intended to be limited to the use of HepG2 cells, hepatocytes, carcinoma cells or even human cells.
HepG2 cells were grown in Falcon tissue culture flasks with vented tops. The culture medium used was Minimal Essential medium (MEM, Invitrogen 11095) with 1 g/L glucose, 2 mM L-glutamine, 2.2 g/L sodium bicarbonate, 10 mg/L phenol red, and supplemented with 0.1 mM Nonessential Amino Acids, 1 mM sodium pyruvate, 50 U/mL penicillin, 50 μg/mL streptomycin, and 10% (v/v) heat inactivated fetal bovine serum (HI FBS, Invitrogen 16140). The cells were seeded at 2×10^4/cm^2 and used 3 days after initiation of culture. During all incubations, the cells were kept in an atmosphere of 5% CO2, 90-100% humidity, and 37° C. Cells were harvested by trypsinization for 3 minutes in 0.25% trypsin-1 mM EDTA and resuspended in an equal volume of culture medium. A viable cell count was obtained by trypan blue exclusion and an appropriate volume of the cell suspension (to have 33% more viable cells than was sufficient for the experiment) was placed in a polypropylene centrifuge tube. Cells were pelleted by centrifugation at 350×g for 10 minutes at room temperature, resuspended in Dulbecco's Phosphate Buffered Saline (D-PBS, Invitrogen 14040) and centrifuged a second time. Cells were then resuspended to two-thirds the final volume needed in Dulbecco' ? s Modified Eagle's Medium (DME, Sigma D5030) containing 10% HI FBS and penicillin-streptomycin but without glucose, L-glutamine, sodium pyruvate, and phenol red. An aliquot was counted by trypan blue exclusion and the cell density was adjusted to 1.28×10^5/mL. Cells were plated in 100 μL/well in wells of standard, 96-well plates (4×10^4 cells/cm^2) and allowed to adhere overnight prior to addition of test chemicals.
For assay, the culture medium was aspirated, the wells were washed once with D-PBS and 170 μL of DME were added to each well, followed by 30 μL of the appropriate dilution of each test energy source. Stocks of 133 mM of each test chemical were prepared in tissue culture grade water, sterile filtered, and dilutions were prepared in a master plate so that, upon dilution into a regular 96-well MICROPLATE a total well volume of 200 μL, the final concentrations would be 0.033 to 20 mM. Negative control wells received 30 μL of tissue culture grade water. For each plate containing energy sources and cells, a second, control plate containing only energy sources was prepared. Plates were incubated at 5% CO2, 90-100% humidity, and 37° C. for 48 to 72 hours prior to addition of the MTS/PMS colorometric reagent (10 μL/well). The color formed in each well 4-24 hours after addition of the calorimetric reagent, was measured with a plate reader at 490 nm with a reference wavelength of 650 nm. OD values from the control plate were subtracted from the OD values obtained with cells prior to normalizing the data to % negative control (cells without added energy source).

The subject of assay [2] is Undifferentiated HL-60 cells. Kind of assay: Energy use by undifferentiated HL-60 cells. The settings on record: for activity at 30 µM / activity at 100 µM / activity at 330 µM / activity at 1000 µM / activity at 3300 µM / activity at 10000 µM / activity at 15000 µM / activity at 20000 µM: Homo sapiens, HL-60, 24 h, read-out: Energy Use by Undifferentiated HL-60 Cells.
In assay [3] the test system is HL-60 cells. The assay is described as follows: Effect of 1 mM chloramphenicol on HL-60 energy utilization. The settings on record: negative control without chloramphenicol. Here is the method:
In this Example, methods for testing antimicrobial-induced modulation in growth of a cell are described. The antimicrobial selected for this Example is chloramphenicol. However, this application is not intended to be limited to the use of chloramphenicol, translation inhibitors or even antibiotics. HL-60 cells were cultured as described in Example 27.
After washing, HL-60 cells were resuspended in DME-R. An aliquot of the cell suspension was counted by trypan blue exclusion and the cell density was adjusted to 6.67×10^5[…]. Fifty μL of DME-R containing 3 mM chloramphenicol were added to each well of the appropriate number of half area, 96-well plates, followed by 25 μL of the appropriate dilution of each test energy source. Stocks of 133 mM of each test chemical were prepared in tissue culture grade water, sterile filtered, and dilutions were prepared in a master plate so that, upon dilution in a total volume of 150 μL, the final concentrations would be 0.033 to 20 mM. Negative control wells received 25 μL of tissue culture grade water. The cells were plated at a volume of 75 μL/well, giving a final cell density of 5×10^4/well. For each plate containing energy sources and cells, a second, control plate containing only energy sources was prepared. Plates were incubated at 5% CO2, 90-100% humidity, and 37° C. for 24 hours prior to addition of the MTS/MPMS colorimetric reagent (7.5 μL/well). The color formed in each well 24 hours after addition of the colorimetric reagent, was measured with a plate reader at 490 nm with a reference wavelength of 650 nm. OD values from the control plate were subtracted from the OD values obtained with cells prior to normalizing the data to % negative control.
Data shown in Table 25 are expressed as percent negative control without chloramphenicol. […] Chloramphenicol clearly has a different effect on the cells than citrate shown in Example 33.

Setting [4] is: energy source 0.03 mM with 1 mM chloramphenicol.
Setting [5] is: energy source 0.10 mM with 1 mM chloramphenicol.
[6] abbreviates: energy source 0.33 mM with 1 mM chloramphenicol.
The mark [7] stands for this setting: energy source 1.00 mM with 1 mM chloramphenicol.
Setting [8] is: energy source 3.3 mM with 1 mM chloramphenicol.
Setting [9] is: energy source 10 mM with 1 mM chloramphenicol.
The mark [10] stands for this setting: energy source 15 mM with 1 mM chloramphenicol.
[11] abbreviates: energy source 20 mM with 1 mM chloramphenicol.

On to `O=C1O[C@@H]([C@H](O)CO)[C@H](O)[C@H]1O` [D-gal acid g-lactone], for which the “HepG2 Cells Responses After 72 hours in Culture and a 4 hour Color Development Period” value in assay [1] (Conc. 0.03 mM) was 111.3 % of negative control; in assay [1] (Conc. 0.10 mM) it was 142.3 % of negative control; in assay [1] (Conc. 0.33 mM), 164.7 % of negative control; in assay [1] (Conc. 1.00 mM), 162.9 % of negative control; in assay [1] (Conc. 3.3 mM) it was 157.3 % of negative control; in assay [1] (Conc. 10 mM) it was 178.4 % of negative control. Besides, the “HepG2 Cells Responses After 72 hours in Culture and a 4 hour Color Development Period” value in assay [1] (Conc. 15 mM) was 239.3 % of negative control; in assay [1] (Conc. 20 mM), 207.6 % of negative control. Moreover, the “Energy Use by Undifferentiated HL-60 Cells” value is 122.7 % of negative control in assay [2] (Conc. 0.03 mM); 127.4 % of negative control in assay [2] (Conc. 0.10 mM); 125.3 % of negative control in assay [2] (Conc. 0.33 mM); 133.2 % of negative control in assay [2] (Conc. 1.00 mM); 152.6 % of negative control in assay [2] (Conc. 3.3 mM); 136.7 % of negative control in assay [2] (Conc. 10 mM). Besides, the “Energy Use by Undifferentiated HL-60 Cells” value in assay [2] (Conc. 15 mM) is given as 147.5 % of negative control; in assay [2] (Conc. 20 mM), 125.0 % of negative control.

Consider `O=C[C@H](O)[C@@H](O)[C@@H](O)[C@H](O)C(=O)O` [D-galacturonic acid], for which the “Effect of 1 mM chloramphenicol on HL-60 Energy Utilization” value (“Effect of 1 mM chloramphenicol” for short) in assay [3] (setting [4]) is recorded as 0.2 % of negative control; in assay [3] (setting [5]), −2.7 % of negative control; in assay [3] (setting [6]) it was −4.6 % of negative control; in assay [3] (setting [7]), −4.6 % of negative control; in assay [3] (setting [8]), 7.9 % of negative control; in assay [3] (setting [9]), 8.4 % of negative control. Moreover, the “Effect of 1 mM chloramphenicol” value in assay [3] (setting [10]) was 5.0 % of negative control; in assay [3] (setting [11]) it was −12.8 % of negative control. Further, the activity at 30 µM was found to be 124% in assay [1] (Conc. 0.03 mM) and 116% in assay [2] (Conc. 0.03 mM). The activity at 100 µM stood at 140% in assay [1] (Conc. 0.10 mM) and 116% in assay [2] (Conc. 0.10 mM). For the same compound, the activity at 330 µM was determined as 171% in assay [1] (Conc. 0.33 mM) and 116% in assay [2] (Conc. 0.33 mM). Moreover, the figures for the activity at 1000 µM in assay [1] (Conc. 1.00 mM) and in assay [2] (Conc. 1.00 mM) were 177% and 141%, respectively. Besides, the activity at 3300 µM is 165% in assay [1] (Conc. 3.3 mM) and 144% in assay [2] (Conc. 3.3 mM). Also, the activity at 10000 µM was 179% in assay [1] (Conc. 10 mM) and 134% in assay [2] (Conc. 10 mM). In addition, the activity at 15000 µM in assay [1] (Conc. 15 mM) was 228%; in assay [2] (Conc. 15 mM), 162%. Further, the activity at 20000 µM was found to be 162% in assay [1] (Conc. 20 mM) and 113% in assay [2] (Conc. 20 mM).

Turning to `NC(=O)C[C@H](N)C(=O)O` [L-asparagine], the “Effect of 1 mM chloramphenicol” value in assay [3] (setting [4]) is given as 6.3 % of negative control; in assay [3] (setting [5]) it was 17.4 % of negative control; in assay [3] (setting [6]), 7.6 % of negative control; in assay [3] (setting [7]), 3.1 % of negative control; in assay [3] (setting [8]), 12.1 % of negative control; in assay [3] (setting [9]), 22.9 % of negative control. The “Effect of 1 mM chloramphenicol” value in assay [3] (setting [10]) is listed as 20.9 % of negative control; in assay [3] (setting [11]), 30.2 % of negative control. In addition, the activity at 30 µM amounted to 122% in assay [1] (Conc. 0.03 mM) and 128% in assay [2] (Conc. 0.03 mM). The values for the activity at 100 µM in assay [1] (Conc. 0.10 mM) and in assay [2] (Conc. 0.10 mM) were 190% and 118%, respectively. The activity at 330 µM in assay [1] (Conc. 0.33 mM) came out at 203%; in assay [2] (Conc. 0.33 mM) it was 118%. Further, the activity at 1000 µM in assay [1] (Conc. 1.00 mM) came to 173%; in assay [2] (Conc. 1.00 mM), 124%. The figures for the activity at 3300 µM in assay [1] (Conc. 3.3 mM) and in assay [2] (Conc. 3.3 mM) were 161% and 136%, respectively. For the same compound, the values for the activity at 10000 µM in assay [1] (Conc. 10 mM) and in assay [2] (Conc. 10 mM) were 124% and 141%, respectively. The activity at 15000 µM is 112% in assay [1] (Conc. 15 mM) and 153% in assay [2] (Conc. 15 mM). The activity at 20000 µM in assay [1] (Conc. 20 mM) came out at 52.2%; in assay [2] (Conc. 20 mM), 157%.
